Results taken from patent US20180200257A1, “METHODS FOR THE TREATMENT OF INFLAMMATORY DISORDERS” (Galapagos NV, priority 2015, published 2018).

System: Subjects With Active Crohn's Disease With Evidence of Mucosal Ulceration
Assay: Study 3 - Creatinine levels
Assay type: in vivo, human
Conditions: for Study 3 - Creatinine Mean CFB / Study 3 - Creatinine Mean percentage CFB: 10 weeks results, 200 mg q.d.
Source text: Double-Blind, Randomized, Placebo-Controlled, Multi-Centre Study to Investigate the Efficacy and Safety of Compound 1 in Subjects With Active Crohn's Disease With Evidence of Mucosal Ulceration. This is a double-blind, randomized, placebo-controlled, multi-centre Phase 2 study to investigate the efficacy and safety of Compound 1 administered once daily for the treatment of active CD with evidence of mucosal ulceration. The pharmacokinetics (including a PK substudy) and pharmacodynamics of Compound 1 and metabolite in CD will also be characterised. A total of 180 eligible subjects will be randomized to receive Compound 1 or placebo in addition to their stable background treatment (eg, corticosteroids, aminosalicylates, or CD-related antibiotics). The study will consist of 2 parts, with total treatment duration of 20 weeks. Randomization in Part 1 will be stratified according the subject's previous anti-TNF exposure/response, CRP level at Screening, and oral corticosteroid use at visit Day −1. After the first 10 weeks of treatment in Part 1, patients will be re-randomized for Part 2 as shown in the diagram below and will be stratified according to the subject's clinical response, previous anti-TNF exposure/response, and oral corticosteroid use at visit Day -1. [table] Creatinine levels determination is available at Quest Diagnostics, Clinical Trials, Quest House, 125-135 Staines Road, Hounslow, Middlesex, TW3 3JB, United Kingdom under Catalogue n# 82565. For Study 3, the data are obtained at BARC Europe, 3B,Industrie Park, Zwijnaarde, B-9052 Ghent, Belgium. The Enzymatic method is based on the determination of sarcosine after conversion of creatinine with the aid of creatininase, creatinase, and sarcosine oxidase. The liberated hydrogen peroxide reacts with 4-aminophenazone and HTIB to form a quinone imine chromogen. The reaction is catalyzed by peroxidase. The color intensity is directly proportional to concentration of creatinine present and can be measured photometrically.

[1] = 200 mg q.d. continued to week 20 (N = 77), week 0
[2] = 200 mg q.d. continued to week 20 (N = 77), week 2
[3] = 200 mg q.d. continued to week 20 (N = 77), week 4
[4] = 200 mg q.d. continued to week 20 (N = 77), week 6
[5] = 200 mg q.d. continued to week 20 (N = 77), week 10
[6] = 200 mg q.d. continued to week 20 (N = 77), week 12
[7] = 200 mg q.d. continued to week 20 (N = 77), week 16
[8] = 200 mg q.d. continued to week 20 (N = 77), week 20
[9] = 200 mg q.d. week 0 to 10, to 100 mg q.d. week 10 to 20 (N = 30), week 0
[10] = 200 mg q.d. week 0 to 10, to 100 mg q.d. week 10 to 20 (N = 30), week 2
[11] = 200 mg q.d. week 0 to 10, to 100 mg q.d. week 10 to 20 (N = 30), week 4
[12] = 200 mg q.d. week 0 to 10, to 100 mg q.d. week 10 to 20 (N = 30), week 6
[13] = 200 mg q.d. week 0 to 10, to 100 mg q.d. week 10 to 20 (N = 30), week 10
[14] = 200 mg q.d. week 0 to 10, to 100 mg q.d. week 10 to 20 (N = 30), week 12
[15] = 200 mg q.d. week 0 to 10, to 100 mg q.d. week 10 to 20 (N = 30), week 16
[16] = 200 mg q.d. week 0 to 10, to 100 mg q.d. week 10 to 20 (N = 30), week 20
[17] = 200 mg q.d. week 0 to 10, to placebo week 10 to 20 (N = 23), week 0
[18] = 200 mg q.d. week 0 to 10, to placebo week 10 to 20 (N = 23), week 2
[19] = 200 mg q.d. week 0 to 10, to placebo week 10 to 20 (N = 23), week 4
[20] = 200 mg q.d. week 0 to 10, to placebo week 10 to 20 (N = 23), week 6
[21] = 200 mg q.d. week 0 to 10, to placebo week 10 to 20 (N = 23), week 10
[22] = 200 mg q.d. week 0 to 10, to placebo week 10 to 20 (N = 23), week 12
[23] = 200 mg q.d. week 0 to 10, to placebo week 10 to 20 (N = 23), week 16
[24] = 200 mg q.d. week 0 to 10, to placebo week 10 to 20 (N = 23), week 20
[25] = placebo week 0 to 10, to 100 mg q.d. week 10 to 20 (N = 22), week 12
[26] = placebo week 0 to 10, to 100 mg q.d. week 10 to 20 (N = 22), week 16
[27] = placebo week 0 to 10, to 100 mg q.d. week 10 to 20 (N = 22), week 20

O=C(Nc1nc2cccc(-c3ccc(CN4CCS(=O)(=O)CC4)cc3)n2n1)C1CC1 [Compound 1, cyclopropanecarboxylic acid {5-[4-(1,1-dioxo-thiomorpholin-4-ylmethyl)-phenyl]-[1,2,4]triazolo[1,5-a]pyridin-2-yl}-amide]
Creatinine Mean CFB [1]: 0.0 µmol/L
Creatinine Mean percentage CFB [1]: 0.0%
Creatinine Mean CFB [2]: 2.22 µmol/L
Creatinine Mean percentage CFB [2]: 4.13%
Creatinine Mean CFB [3]: 3.93 µmol/L
Creatinine Mean percentage CFB [3]: 6.08%
Creatinine Mean CFB [4]: 2.51 µmol/L
Creatinine Mean percentage CFB [4]: 4.44%
Creatinine Mean CFB [5]: 6.00 µmol/L
Creatinine Mean percentage CFB [5]: 9.34%
Creatinine Mean CFB [6]: 4.02 µmol/L
Creatinine Mean percentage CFB [6]: 7.10%
Creatinine Mean CFB [7]: 1.81 µmol/L
Creatinine Mean percentage CFB [7]: 3.62%
Creatinine Mean CFB [8]: 3.20 µmol/L
Creatinine Mean percentage CFB [8]: 5.43%
Creatinine Mean CFB [9]: 0.0 µmol/L
Creatinine Mean percentage CFB [9]: 0.0%
Creatinine Mean CFB [10]: 3.36 µmol/L
Creatinine Mean percentage CFB [10]: 5.77%
Creatinine Mean CFB [11]: 4.98 µmol/L
Creatinine Mean percentage CFB [11]: 8.03%
Creatinine Mean CFB [12]: 4.00 µmol/L
Creatinine Mean percentage CFB [12]: 6.37%
Creatinine Mean CFB [13]: 6.48 µmol/L
Creatinine Mean percentage CFB [13]: 11.55%
Creatinine Mean CFB [14]: 2.92 µmol/L
Creatinine Mean percentage CFB [14]: 6.01%
Creatinine Mean CFB [15]: 4.89 µmol/L
Creatinine Mean percentage CFB [15]: 8.86%
Creatinine Mean CFB [16]: 3.43 µmol/L
Creatinine Mean percentage CFB [16]: 6.19%
Creatinine Mean CFB [17]: 0.0 µmol/L
Creatinine Mean percentage CFB [17]: 0.0%
Creatinine Mean CFB [18]: 1.95 µmol/L
Creatinine Mean percentage CFB [18]: 3.55%
Creatinine Mean CFB [19]: 3.83 µmol/L
Creatinine Mean percentage CFB [19]: 6.09%
Creatinine Mean CFB [20]: 2.15 µmol/L
Creatinine Mean percentage CFB [20]: 3.92%
Creatinine Mean CFB [21]: 5.88 µmol/L
Creatinine Mean percentage CFB [21]: 10.23%
Creatinine Mean CFB [22]: 1.84 µmol/L
Creatinine Mean percentage CFB [22]: 3.14%
Creatinine Mean CFB [23]: 0.47 µmol/L
Creatinine Mean percentage CFB [23]: 1.93%
Creatinine Mean CFB [24]: -0.26 µmol/L
Creatinine Mean percentage CFB [24]: 0.68%
Study 3 - Creatinine Mean CFB (week 2): 2.44 µM
Study 3 - Creatinine Mean percentage CFB (week 2): 4.41%
Study 3 - Creatinine Mean CFB (week 4): 4.16 µM
Study 3 - Creatinine Mean percentage CFB (week 4): 6.55%
Study 3 - Creatinine Mean CFB (week 6): 2.81 µM
Study 3 - Creatinine Mean percentage CFB (week 6): 4.82%
Study 3 - Creatinine Mean CFB (week 10): 6.08 µM
Study 3 - Creatinine Mean percentage CFB (week 10): 10.05%
Creatinine Mean CFB [25]: 3.09 µmol/L
Creatinine Mean percentage CFB [25]: 4.87%
Creatinine Mean CFB [26]: 4.33 µmol/L
Creatinine Mean percentage CFB [26]: 6.52%
Creatinine Mean CFB [27]: 3.11 µmol/L
Creatinine Mean percentage CFB [27]: 4.31%
